Results as given in US20250321225A1, “SKIN DAMAGE ORGANOID MODEL AND DRUG SCREENING METHOD USING THE SAME” (KANGSTEM BIOTECH CO., LTD., priority 2023, published 2025).

Tests used:
Assay type in all cases: cell-based, human
hair follicles in SkOs = assay: Hair follicle damage in sUV-exposed SkOs
Description: The effects of sUV exposure on skin appendages in the dermis of SkOs were investigated. As a result, it was confirmed that the expression of a KRT5 marker constituting the outer layer of a hair follicle in SkOs was reduced. […] Accordingly, to thoroughly compare the extent of hair follicle damage, hair follicles were isolated from each skin organoid and subjected to qRT-PCR analysis. […] To determine the optimal concentration of UCB-Exos for alleviating SkO damage by sUV, SkOs were treated with different concentrations of UCB-Exos two hours after sUV exposure, and this procedure was repeated three times (FIG. 5A). […] The effect of UCB-Exos on hair follicles in SkOs was investigated. In the hair follicles, apoptosis (cleaved caspase-3^+) was reduced, and the number of regenerating cells (Ki67^+) increased (FIGS. 6A and 6B). In addition, keratinocytes and fibroblasts in the hair follicles aged by sUV are known to secrete MMPs and inflammatory cytokines known as a senescence-associated secretory phenotype (SASP).

NF-κB = assay: IκB/NF-κB signaling in sUV-exposed SkOs (Western blotting, immunofluorescence)
Excerpt: NF-κB is known to play an important role in regulating the expression of immune mediators. […] When activated by external stimuli such as inflammatory cytokines or cellular stress, the IκBα protein is phosphorylated and subsequently degraded, releasing NF-κB from the NF-κB-IκB complex. The released NF-κB translocates to the cell nucleus to promote the transcription of genes involved in inflammation and induce cytokine production. Considering the above, the present inventors investigated whether IκB-dependent NF-κB activation mediates the inflammatory response in hair follicles.
This caused the disruption of the NF-κB-IκB complex which activated NF-κB and caused it to translocate to the nucleus, as evidenced by increased NF-κB expression in the nuclear compartment of SkOs exposed to sUV. After treating the sUV-exposed SkOs with UCB-Exos, it was observed that both IκBα phosphorylation and degradation decrease, and nuclear translocation of NF-κB was inhibited (FIGS. 7A and 7B). […] Generally, hair follicles are composed of keratinocytes and fibroblasts, both of which play an important role in skin inflammatory responses. […] Meanwhile, the epidermis of SkOs, which is the uppermost layer exposed to sUV, was also inflamed, which may extend to the dermis and indirectly damage hair follicles (FIGS. 7G and 7H).
To evaluate the direct effect of UCB-Exos alleviating sUV-induced damage by NF-κB activation, the present inventors treated a sUV-damaged organoid with the NF-κB inhibitor, BAY11-7082. BAY11-7082 is known to inhibit the translocation of NF-κB to the nucleus by inhibiting the degradation of IκBα unit, thereby preventing further activation of NF-κB signaling.
As expected, it was confirmed that IL-6 expression was positively correlated with the expression level of NF-κB (FIGS. 8A and 8B).

[1] = tested on: inflammatory cytokines, such as IL-6, TNF-α, and IL-1β; assay: Inflammatory cytokine expression and secretion in sUV-exposed SkOs (qPCR, immunofluorescence, ELISA)
Description: It is known that sUV irradiation causes the secretion of pro-inflammatory cytokines in skin tissue, leading to skin inflammation and subsequent skin damage. Accordingly, it was investigated whether sUV exposure can also affect hair follicles and induce an inflammatory response in the dermis of SkOs.
Furthermore, the secretion of inflammatory cytokines, such as IL-6, TNF-α, and IL-1β, increased by sUV exposure, was evaluated by ELISA.

normal hair follicles = assay: Hair follicle growth in normal hair follicle organoid; conditions: for hair follicle length compared to the control: 14 days after drug treatment
Excerpt: The hair follicle growth was compared after treatment with each of minoxidil, which is known to promote hair follicle growth, and dihydrotestosterone (DHT), which is an endogenous hormone causing hair loss.

| SMILES | apoptosis / death rate in hair follicles (hair follicles in SkOs; Example 6) | mRNA expression of ECM components associated with inflammatory cytokines and SASP (hair follicles in SkOs; hair follicles) | IκBα degradation (NF-κB; Western blotting, Example 6) | NF-κB nuclear translocation / activation / levels (NF-κB; Western blotting, Example 6) | phosphorylated IκBα (NF-κB; Western blotting, Example 6) | NF-κB translocation to the nuclei in hair follicles (NF-κB; immunofluorescence staining) | difference in IL-6 and TNF-α secretion between BAY11-7082-treated SkOs and UCB-Exos-treated SkOs ([1]; ELISA) | IL-6 in the cytoplasm in hair follicles ([1]; immunofluorescence staining) | hair follicle length compared to the control (normal hair follicles) | expression of genes (IGF-1, WNT3A) associated with hair growth promotion (normal hair follicles; compared to the control) | hair loss-associated genes (DKK1, TGFb-2) (normal hair follicles; compared to the control) |
| --- | --- | --- | --- | --- | --- | --- | --- | --- | --- | --- | --- |
| Cc1ccc(S(=O)(=O)/C=C/C#N)cc1 [BAY11-7082] | reduced | dramatically reduced | inhibition | reduced | decreased | significant decrease | no significant difference | significant decrease | approximately 1.4 fold | upregulated | downregulated |
| C[C@]12CCC(=O)C[C@@H]1CC[C@@H]1[C@@H]2CC[C@]2(C)[C@@H](O)CC[C@@H]12 [DHT, dihydrotestosterone] | – | – | – | – | – | – | – | – | approximately 0.7 fold | – | – |
| Nc1cc(N2CCCCC2)nc(N)[n+]1[O-] [minoxidil] | – | – | – | – | – | – | – | – | approximately 1.3 fold | – | – |
